According to patent publication US4897402A, “5-oxa, 5-thia, 5-aza HmG-CoA reductase inhibitors” (Merck & Co., Inc., priority 1988, dated 1990):

Target: T1, HMG-CoA reductase (Rattus norvegicus, UniProt P51639)
T1 sequence (P51639 1-887): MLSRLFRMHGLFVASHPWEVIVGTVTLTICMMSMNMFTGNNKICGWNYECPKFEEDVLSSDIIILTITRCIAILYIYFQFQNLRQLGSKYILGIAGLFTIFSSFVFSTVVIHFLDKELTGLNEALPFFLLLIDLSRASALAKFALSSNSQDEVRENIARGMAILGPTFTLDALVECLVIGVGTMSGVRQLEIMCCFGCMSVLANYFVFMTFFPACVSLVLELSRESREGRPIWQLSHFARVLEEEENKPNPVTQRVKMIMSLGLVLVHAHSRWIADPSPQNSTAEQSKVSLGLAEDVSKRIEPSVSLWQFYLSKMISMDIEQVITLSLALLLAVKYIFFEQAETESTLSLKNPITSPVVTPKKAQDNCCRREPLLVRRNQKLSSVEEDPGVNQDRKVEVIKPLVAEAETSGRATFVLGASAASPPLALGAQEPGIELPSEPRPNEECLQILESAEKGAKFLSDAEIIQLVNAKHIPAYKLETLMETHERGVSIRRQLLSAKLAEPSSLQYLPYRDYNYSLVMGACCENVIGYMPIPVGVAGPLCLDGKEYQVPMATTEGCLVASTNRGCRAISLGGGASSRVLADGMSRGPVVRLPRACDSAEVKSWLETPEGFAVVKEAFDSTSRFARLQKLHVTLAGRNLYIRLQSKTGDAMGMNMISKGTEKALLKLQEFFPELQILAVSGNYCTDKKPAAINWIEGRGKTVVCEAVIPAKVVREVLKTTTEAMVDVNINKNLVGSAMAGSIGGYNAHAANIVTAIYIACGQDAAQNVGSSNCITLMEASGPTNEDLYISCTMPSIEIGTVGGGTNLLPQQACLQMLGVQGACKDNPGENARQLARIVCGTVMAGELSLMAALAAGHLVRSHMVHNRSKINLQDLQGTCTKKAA
Experiment: intrinsic HMG-CoA reductase inhibition, in vitro protocol of J. Med. Chem., 28, p. 347-358 (1985)
Format: biochemical
Conditions: IC50 of test compound compared with that of compactin (mevastatin) determined simultaneously; compactin assigned a value of 100
Procedure: The intrinsic HMG--CoA reductase inhibition activity of the claimed compounds is measured in the in vitro protocol published in J. Med. Chem., 28, p. 347-358 (1985).
For estimation of relative inhibitory potencies, compactin (i.e., mevastatin) was assigned a value of 100 and the IC50 value of the test compound was compared with that of compactin determined simultaneously in the published in vitro protocol.
Representative of the intrinsic HMG-CoA reductase inhibitory activities of the claimed compounds are the following potencies.

Row | Relative Potency | SMILES
1 | 96 | CCC(C)(C)C(=O)O[C@H]1CC(C)(C)O[C@@H]2CC[C@H](C)[C@H](CC[C@@H]3C[C@@H](O)CC(=O)O3)[C@@H]12 [Compound 9, 6(R) [2-[8(S)-(2,2-dimethylbutyryloxy)-2(S)-methyl-5-oxa-6,6-dimethyl-1,2,3,4,4a(R),7,8,8a(R)-octahydronaphthyl-1(S)]ethyl]-4(R)-hydroxy-3,4,5,6-tetrahydro-2H-pyran-2-one]
2 | 258 | CCC(C)(C)C(=O)O[C@H]1C[C@@](C)(CSc2ccccc2)O[C@@H]2CC[C@H](C)[C@H](CC[C@@H]3C[C@@H](O)CC(=O)O3)[C@@H]12 [Compound 10, 6(R)-[2-[8(S)-(2,2-dimethylbutyryloxy)-2(S)-methyl-5-oxa-6(S)-(phenylthiomethyl, methyl)-1,2,3,4,4a(R),7,8,8a(R)-octahydronaphthyl-1(S)]ethyl]4(R)-hydroxy 3,4,5,6-tetrahydro-2H-pyran-2-one]
3 | 280 | CCC(C)(C)C(=O)O[C@H]1C[C@](C)(CSc2ccccc2)O[C@@H]2CC[C@H](C)[C@H](CC[C@@H]3C[C@@H](O)CC(=O)O3)[C@@H]12 [Compound 11, 6(R)-[2-[8(S)-(2,2-dimethylbutyryloxy)-2(S)-methyl-5-oxa-6(R)-(phenylthiomethyl, methyl)-1,2,3,4,4a(R),7,-8,8a(R)-octahydronaphthyl-1(S)]ethyl]-4-(R)-hydroxy 3,4,5,6-tetrahydro-2H-pyran-2-one]
